Patent publication US11236055B2 (Venenum Biodesign, LLC, priority 2016, dated 2022)
pEC50: −log10 of the molar value. Where a name gives a salt, the structure may show the parent alone.

How the values were obtained:
human TGR5 receptor = molecular target: T1, human TGR5 receptor (Homo sapiens, UniProt Q8TDU6); assay: Human TGR5 cAMP production assay; assay type: cell-based; conditions: human TGR5, luminescent cAMP assay; coded A-D; read-out: Human TGR5 Lum. cAMP Activity (EC50)
T1 construct: host or cells: CHO-K1 (hTGR5-CHO cells)
T1 sequence (Q8TDU6 1-330): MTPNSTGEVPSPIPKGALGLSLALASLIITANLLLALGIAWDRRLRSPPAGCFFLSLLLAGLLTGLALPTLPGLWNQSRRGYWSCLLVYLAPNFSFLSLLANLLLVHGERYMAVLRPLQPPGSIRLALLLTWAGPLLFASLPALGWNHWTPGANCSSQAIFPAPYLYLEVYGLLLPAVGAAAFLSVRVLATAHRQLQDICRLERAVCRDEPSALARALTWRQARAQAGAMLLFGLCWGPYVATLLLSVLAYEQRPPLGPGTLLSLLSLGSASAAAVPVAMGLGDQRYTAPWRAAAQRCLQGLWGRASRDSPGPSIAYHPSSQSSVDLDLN
Outline: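 Intracellular cAMP read by luminescent enzyme-complementation (XS+) after overnight development, following 1 h room-temperature compound treatment of hTGR5-CHO-K1 cells in IBMX plus anti-cAMP antibody. Compounds tested as half-log dilution series; EC50 derived.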

mouse TGR5 receptor = molecular target: T2, mouse TGR5 receptor (Mus musculus, UniProt Q80SS6); assay: Mouse TGR5 cAMP production assay (HTRF, Cisbio cAMP HiRange); assay type: cell-based; conditions: HEK293-EBNA cells overexpressing mouse TGR5, HTRF cAMP HiRange; coded A-D
T2 construct: expressed in transfected cells; host or cells: HEK293-EBNA (293 c18, ATCC CRL10852), Hygromycin B selection
T2 sequence (Q80SS6 1-329): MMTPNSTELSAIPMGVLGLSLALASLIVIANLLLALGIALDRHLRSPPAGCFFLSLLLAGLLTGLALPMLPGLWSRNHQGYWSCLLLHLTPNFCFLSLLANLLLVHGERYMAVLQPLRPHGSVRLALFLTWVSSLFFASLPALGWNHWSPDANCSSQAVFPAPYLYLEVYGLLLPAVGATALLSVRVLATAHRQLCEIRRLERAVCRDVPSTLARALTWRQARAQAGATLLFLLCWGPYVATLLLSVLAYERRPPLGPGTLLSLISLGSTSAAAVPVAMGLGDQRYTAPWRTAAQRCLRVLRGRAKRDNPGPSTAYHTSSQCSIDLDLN
Outline: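 cAMP read by HTRF competition after 1 h room-temperature compound exposure of mouse TGR5-overexpressing HEK293-EBNA cells. Cells were suspended in serum-free DMEM containing 500 μM IBMX; compounds ran as 12-point half-log dilutions in duplicate; EC50 derived.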

SMILES	pEC50 (human TGR5 receptor)	pEC50 (mouse TGR5 receptor)
Cc1cnccc1-c1cccc([C@H](C)N(CCCCC(=O)NC[C@@H](O)[C@H](O)[C@@H](O)[C@@H](O)CO)S(=O)(=O)c2cccc(Cl)c2C)c1 [Compound 20AI, 5-(3-chloro-2-methyl-N-((S)-1-(3-(3-methylpyridin-4-yl)phenyl)ethyl)phenylsulfonamido)-N-((2R,3S,4S,5S)-2,3,4,5,6-pentahydroxyhexyl)pentanamide]	> 7.00	6.00 to 7.00
Cc1cnsc1-c1cccc([C@H](C)NS(=O)(=O)c2cccc(Cl)c2C)c1 [Compound 7AA, (S)-3-chloro-2-methyl-N-(1-(3-(4-methylisothiazol-5-yl)-phenyl)ethyl)benzenesulfonamide]	4.52 to 6.00	< 4.52
COc1cnccc1-c1cccc(C(C)(C)NS(=O)(=O)c2cccc(C(F)(F)F)c2C)c1 [Compound 2BM]	> 7.00	6.00 to 7.00
Cc1cnccc1-c1cccc([C@H](C)N(CCCC(=O)N(CC(=O)O)CC(=O)O)S(=O)(=O)c2cccc(Cl)c2C)c1 [Compound 21AK, (S)-2,2′-((4-(3-chloro-2-methyl-N-(1-(3-(3-methylpyridin-4-yl)phenyl)ethyl)phenylsulfonamido)butanoyl)azanediyl)diacetic acid]	4.52 to 6.00	4.52 to 6.00
CCc1cnccc1-c1cccc(C2CN(C(=O)CP(=O)(O)O)CCN2S(=O)(=O)c2cccc(Cl)c2C)c1 (centres unmarked) [Compound 50]	6.00 to 7.00	> 7.00
Cc1cnccc1-c1cccc(CCNS(=O)(=O)c2ccccc2C(F)(F)F)c1 [Compound 5BD, N-(3-(3-methylpyridin-4-yl)phenethyl)-2-(trifluoromethyl)benzenesulfonamide]	6.00 to 7.00	4.52 to 6.00
Cc1cnccc1-c1cccc(C(C)(C)N(CCCC(=O)NCCN)S(=O)(=O)c2cccc(Cl)c2C)c1 [Compound 21, N-(2-Aminoethyl)-4-(3-chloro-2-methyl-N-(2-(3-(3-methylpyridin-4-yl)phenyl)propan-2-yl)-phenylsulfonamido)butanamide]	> 7.00	6.00 to 7.00
Cc1c(Cl)cccc1S(=O)(=O)N(CCCC(=O)NCCS(=O)(=O)NCC(=O)O)[C@@H](C)c1cccc(-c2ccncc2CO)c1 [Compound 20BS, (S)-2-(4-(3-chloro-N-(1-(3-(3-(hydroxymethyl)pyridin-4-yl)phenyl)ethyl)-2-methylphenylsulfonamido)butanamido)ethanesulfonamido acetic acid]	6.00 to 7.00	> 7.00
Cc1cc2nccn2cc1-c1cccc(C(C)(C)NS(=O)(=O)c2ccccc2C(F)(F)F)c1 [Compound 5AK, N-(2-(3-(7-methylimidazo[1,2-a]pyridin-6-yl)phenyl)propan-2-yl)-2-(trifluoromethyl)benzenesulfonamide]	6.00 to 7.00	4.52 to 6.00
COc1cnccc1-c1cccc(C(C)(C)NS(=O)(=O)c2ccc(F)cc2C(F)(F)F)c1 [Compound 2BD]	> 7.00	6.00 to 7.00
CC[C@H](NS(=O)(=O)c1ccccc1C(F)(F)F)c1cccc(-c2ccncc2OC)c1 [Compound 1CD]	> 7.00	6.00 to 7.00
Cc1cnccc1-c1cccc(C(C)(C)NS(=O)(=O)c2cccc(Cl)c2C)c1 [Compound 2BU]	> 7.00	> 7.00
CCc1cnccc1-c1cccc([C@H](C)N(CCCC(=O)O)S(=O)(=O)c2ccccc2C(F)(F)F)c1 [Compound 15AB, (S)-4-(N-(1-(3-(3-ethylpyridin-4-yl)phenyl)ethyl)-2-(trifluoromethyl)phenylsulfonamido)butanoic acid]	> 7.00	> 7.00
Cc1cnccc1-c1cccc([C@H](C)N(CCCC(=O)NCCS(=O)(=O)NCCC(=O)O)S(=O)(=O)c2ccccc2C(F)(F)F)c1 [Compound 20BI]	> 7.00	> 7.00
Cc1cnccc1-c1cccc(C(C)(C)NS(=O)(=O)c2cccc(Cl)c2Cl)c1 [Compound 2BV]	> 7.00	> 7.00
Cc1cnccc1-c1cccc([C@H](C)N(CCCC(=O)NCCC(=O)NCC(=O)O)S(=O)(=O)c2cccc(Cl)c2C)c1 [Compound 21AM, (S)-2-(3-(4-(3-chloro-2-methyl-N-(1-(3-(3-methylpyridin-4-yl)phenyl)ethyl)phenylsulfonamido)butanamido)propanamido)acetic acid]	> 7.00	6.00 to 7.00

The next lines start with the values.

pEC50 (human TGR5 receptor)	pEC50 (mouse TGR5 receptor)	SMILES
6.00 to 7.00	6.00 to 7.00	Cc1cnccc1-c1cccc([C@H]2C[C@@H](C(=O)O)CCN2S(=O)(=O)c2ccccc2C(F)(F)F)c1 (relative stereo) [Compound 55, cis-2-(3-(3-Methylpyridin-4-yl)phenyl)-1-((2-(trifluoromethyl)phenyl)sulfonyl)piperidine-4-carboxylic acid]
6.00 to 7.00	> 7.00	CC(=O)N1CCN(S(=O)(=O)c2ccccc2C(F)(F)F)C(c2cccc(-c3ccncc3C)c2)C1 (centres unmarked) [Compound 45, 1-(3-(3-(3-methylpyridin-4-yl)phenyl)-4-((2-(trifluoromethyl)phenyl)sulfonyl)piperazin-1-yl)ethanone]
6.00 to 7.00	> 7.00	Cc1cnccc1-c1cccc(C2CN(C(=O)CS(=O)(=O)O)CCN2S(=O)(=O)c2ccccc2C)c1 (centres unmarked) [Compound 49AA, 2-(3-(3-(3-methylpyridin-4-yl)phenyl)-4-(o-tolylsulfonyl)piperazin-1-yl)-2-oxoethanesulfonic acid]
> 7.00	6.00 to 7.00	CCc1cnccc1-c1cccc([C@H](C)N(CCCC(=O)NCCN)S(=O)(=O)c2cccc(Cl)c2C)c1 [Compound 21AS, (S)-N-(2-aminoethyl)-4-(3-chloro-N-(1-(3-(3-ethylpyridin-4-yl)phenyl)ethyl)-2-methylphenylsulfonamido)butanamide]
6.00 to 7.00	6.00 to 7.00	Cc1cnccc1-c1cccc([C@H](C)N(CCCCNCCC(=O)O)S(=O)(=O)c2cccc(Cl)c2C)c1 [Compound 33, (S)-3-((4-(3-chloro-2-methyl-N-(1-(3-(3-methylpyridin-4-yl)phenyl)ethyl)phenylsulfonamido)butyl)amino)propanoic acid]
> 7.00	4.52 to 6.00	Cc1cnccc1-c1cccc(C(C)(C)N(CCCN)S(=O)(=O)c2cccc(Cl)c2C)c1 [Compound 23, N-(3-aminopropyl)-3-chloro-2-methyl-N-(2-(3-(3-methylpyridin-4-yl)phenyl)propan-2-yl)benzenesulfonamide]
> 7.00	6.00 to 7.00	Cc1cnccc1-c1cccc(C(C)(C)N(CCCC(=O)NCCNC(=N)N)S(=O)(=O)c2cccc(Cl)c2C)c1 [Compound 27AB, 4-(3-chloro-2-methyl-N-(2-(3-(3-methylpyridin-4-yl)phenyl)propan-2-yl)phenylsulfonamido)-N-(2-guanidinoethyl)butanamide]
4.52 to 6.00	4.52 to 6.00	Cc1ccc(S(=O)(=O)NC(CCCCC#N)c2cccc(-c3ccncc3C)c2)nc1 (centres unmarked) [Compound 35B, N-(5-cyano-1-(3-(3-methylpyridin-4-yl)phenyl)pentyl)-5-methylpyridine-2-sulfonamide]
6.00 to 7.00	> 7.00	CCc1cnccc1-c1cccc(C2CN(C(=O)[C@@H](N)CS(=O)(=O)O)CCN2S(=O)(=O)c2cccc(Cl)c2C)c1 (mixture of isomers) [Compound 48, (2R)-2-amino-3-(4-((3-chloro-2-methylphenyl)sulfonyl)-3-(3-(3-ethylpyridin-4-yl)phenyl)piperazin-1-yl)-3-oxopropane-1-sulfonic acid hydrochloride]
6.00 to 7.00	> 7.00	Cc1cnccc1-c1cccc(C2CN(C(=O)CCC(=O)O)CCN2S(=O)(=O)c2cccc(Cl)c2Cl)c1 (centres unmarked) [Compound 46AK, 4-(4-((2,3-dichlorophenyl)sulfonyl)-3-(3-(3-methylpyridin-4-yl)phenyl)piperazin-1-yl)-4-oxobutanoic acid]
6.00 to 7.00	6.00 to 7.00	Cc1cnccc1-c1cccc(C(CCCCNC(=O)NCCS(=O)(=O)O)NS(=O)(=O)c2ccccc2C(F)(F)F)c1 (centres unmarked) [Compound 28AG, 2-(3-(5-(3-(3-methylpyridin-4-yl)phenyl)-5-(2-(trifluoromethyl)phenylsulfonamido)pentyl)ureido)ethanesulfonic acid]
> 7.00	6.00 to 7.00	Cc1cnccc1-c1cccc(C2CCCCN2S(=O)(=O)c2ccccc2C(F)(F)F)c1 (centres unmarked) [Compound 54, 3-methyl-4-(3-(1-((2-(trifluoromethyl)phenyl)sulfonyl)piperidin-2-yl)phenyl)pyridine]
